# Test results: patent US20240000806A1, “METHODS AND MATERIALS FOR INHIBITING CB1 ACTIVITY” (University of Pittsburgh - Of the Commonwealth System of …, priority 2020, published 2024)
# Target: CB1 (CNR1) (Homo sapiens, UniProt P21554)
# Assay: cAMP CNR1 Hunter cell line antagonist assay (CB1 assay)
# Type: cell-based
# Conditions: antagonist mode, cAMP CNR1 Hunter cells, EC80 agonist; read-out: CB1 assay, Efficacy (IC50)
# Experimental: cAMP CNR1 Hunter cell line (Eurofins DiscoveryX) were expanded from freezer stocks and seeded in a total volume of 20 μL into white walled, 384-well microplates and incubated at 37° C. for the appropriate time prior to testing. For antagonist determination, cell media was aspirated from cells and replaced with 10 μL 1:1 HBSS/Hepes:cAMP XS+Ab reagent. 5 μL of 4× compound was added to the cells and incubated at 37° C. for 30 minutes. 5 μL of 4× EC80 agonist was added to cells and incubated at 37° C. for 30 minutes. After appropriate compound incubation, assay signal was generated through incubation with 20 μL cAMP XS+ED/CL lysis cocktail for one hour followed by incubation with 20 μL cAMP XS+EA reagent for three hours at room temperature. Microplates were read following signal generation with a PerkinElmer Envision™ instrument for chemiluminescent signal detection. Compound activity (IC50) was analyzed using CBIS data analysis suite (ChemInnovation, CA).
# CB1 (CNR1), sequence (P21554 whole entry): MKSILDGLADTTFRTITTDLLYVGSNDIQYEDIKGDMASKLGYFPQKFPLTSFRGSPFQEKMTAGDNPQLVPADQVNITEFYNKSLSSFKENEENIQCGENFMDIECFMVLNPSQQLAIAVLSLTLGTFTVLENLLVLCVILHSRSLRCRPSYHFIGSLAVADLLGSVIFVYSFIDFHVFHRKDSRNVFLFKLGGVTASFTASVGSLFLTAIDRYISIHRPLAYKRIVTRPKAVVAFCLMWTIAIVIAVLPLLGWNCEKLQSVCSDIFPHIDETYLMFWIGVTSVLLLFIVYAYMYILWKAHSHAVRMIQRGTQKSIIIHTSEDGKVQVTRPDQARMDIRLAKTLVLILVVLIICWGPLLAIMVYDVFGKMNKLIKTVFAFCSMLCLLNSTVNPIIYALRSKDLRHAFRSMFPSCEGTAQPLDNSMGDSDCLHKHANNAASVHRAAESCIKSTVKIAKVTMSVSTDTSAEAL
row,Compound,IC50 [µM]
1,CC(C)CC1Oc2cc(S(=O)(=O)Nc3cccc(Cl)c3)c(Br)cc2NC1=O (stereo not drawn) [BC19776],≥ 25
2,Cc1ccc(NS(=O)(=O)c2cc(Br)cc3c2OC(CC(C)C)C(=O)N3)cc1Cl (stereo not drawn) [BC19767],1 to 25
3,O=C1COc2cc(S(=O)(=O)NCc3ccc(C(F)(F)F)cc3)c(Br)cc2N1 [BC19391],≥ 25
4,CCC1Oc2cc(S(=O)(=O)Nc3ccc(OC(F)(F)F)cc3)c(Br)cc2N(C)C1=O (stereo not drawn) [BC19922],≥ 25
5,CC(C)c1ccc(NS(=O)(=O)c2cc(Cl)cc3c2OCC(=O)N3)cc1 [BC19174],≥ 25
6,Cc1ccc(NS(=O)(=O)c2cc3c(cc2Cl)NC(=O)C(C)O3)cc1Cl (stereo not drawn) [BC19708],≥ 25
7,O=C1CCOc2cc(S(=O)(=O)Nc3ccc(F)cc3Cl)c(Br)cc2N1 [BC19658],≥ 25
8,CC1Oc2c(cc(Br)cc2S(=O)(=O)Nc2cccc(Cl)c2)N(C)C1=O (stereo not drawn) [BC19904],1 to 25
9,CC1Oc2c(cc(Br)cc2S(=O)(=O)Nc2ccc(F)cc2)N(C)C1=O (stereo not drawn) [BC19911],≥ 25
10,CCc1cccc(NS(=O)(=O)c2cc(Br)cc3c2OC(CC)C(=O)N3C)c1 (stereo not drawn) [BC19915],1 to 25
11,CCC1Oc2c(cc(Br)cc2S(=O)(=O)Nc2ccc(C)c(F)c2)N(C)C1=O (stereo not drawn) [BC19923],≥ 25
12,Cc1ccc(NS(=O)(=O)c2cc(Cl)cc3c2OC(C)C(=O)N3)cc1 (stereo not drawn) [BC19718],≥ 25
13,CCC1Oc2cc(S(=O)(=O)Nc3ccc(C)cc3)c(Cl)cc2NC1=O (stereo not drawn) [BC19753],1 to 25
14,Cc1ccc(NS(=O)(=O)c2c(C)c(Cl)cc3c2OCC(=O)N3)cc1Cl [BC19433],≥ 25
15,O=C1NCCOc2c1cc(Br)cc2S(=O)(=O)Nc1cccc(Cl)c1 [BC19611],≥ 25
16,COc1ccc(NS(=O)(=O)c2cc3c(cc2Br)NC(=O)CO3)cc1Cl [BC19163],< 1
17,CCC1Oc2cc(S(=O)(=O)NCc3ccc(C(F)(F)F)cc3)c(Br)cc2NC1=O (stereo not drawn) [BC19370],≥ 25
18,CCC1Oc2cc(S(=O)(=O)Nc3ccc(F)cc3F)c(Cl)cc2NC1=O (stereo not drawn) [BC19747],1 to 25
19,CCc1ccc(NS(=O)(=O)c2cc3c(cc2Br)NC(=O)C(CC(C)C)O3)cc1 (stereo not drawn) [BC19764],1 to 25
20,CCC1Oc2cc(S(=O)(=O)Nc3ccc(Cl)cc3)c(Br)cc2N(C)C1=O (stereo not drawn) [BC19930],≥ 25
21,Cc1ccc(NS(=O)(=O)c2cc3c(cc2Br)NC(=O)C(CC(C)C)O3)cc1Cl (stereo not drawn) [BC19768],1 to 25
22,CC1Oc2cc(S(=O)(=O)Nc3ccc(OC(F)(F)F)cc3)c(Cl)cc2NC1=O (stereo not drawn) [BC19354],≥ 25

row,Compound,IC50 [µM]
1,CCc1cccc(NS(=O)(=O)c2cc(Br)cc3c2OC(CC(C)C)C(=O)N3)c1 (stereo not drawn) [BC19771],1 to 25
2,CCC1Oc2cc(S(=O)(=O)Nc3ccc(C)c(Cl)c3)c(Br)cc2N(C)C1=O (stereo not drawn) [BC19938],≥ 25
3,Cc1ccc(NS(=O)(=O)c2cc3c(cc2Cl)NC(=O)C(C)O3)cc1 (stereo not drawn) [BC19717],≥ 25
4,CS(=O)(=O)c1cc2c(c(S(=O)(=O)Nc3ccc(F)cc3F)c1)OCC(=O)N2 [BC19425],≥ 25
5,Cc1ccc(NS(=O)(=O)c2cc3c(cc2Br)NC(=O)CCO3)cc1F [BC19653],≥ 25
6,CCCNS(=O)(=O)c1cc2c(cc1Cl)NC(=O)C(CC)O2 (stereo not drawn) [BC19214],≥ 25
7,CCC1Oc2c(cc(Cl)cc2S(=O)(=O)Nc2ccc(F)cc2)NC1=O (stereo not drawn) [BC19732],1 to 25
8,CCC1Oc2cc(S(=O)(=O)NCc3ccc(OC(F)(F)F)cc3)c(Br)cc2NC1=O (stereo not drawn) [BC19369],≥ 25
9,Cc1ccc(Cl)cc1NS(=O)(=O)c1cc(Cl)cc2c1OCC(=O)N2 [BC19170],1 to 25
10,CCNS(=O)(=O)c1cc(Cl)cc2c1OC(C)C(=O)N2 (stereo not drawn) [BC19294],1 to 25
11,CCS(=O)(=O)c1cc2c(c(S(=O)(=O)Nc3ccc(F)c(F)c3)c1)OCC(=O)N2 [BC19421],≥ 25
12,CC1Oc2cc(S(=O)(=O)Nc3ccc(C(C)C)cc3)c(Br)cc2N(C)C1=O (stereo not drawn) [BC19794],≥ 25
13,CCS(=O)(=O)c1cc2c(c(S(=O)(=O)Nc3ccccc3)c1)OCC(=O)N2 [BC19437],≥ 25
14,O=C1COc2c(cc(Br)cc2S(=O)(=O)NCc2ccc(OC(F)(F)F)cc2)N1 [BC19385],≥ 25
15,CCC1Oc2cc(S(=O)(=O)Nc3ccc(OC)c(Cl)c3)c(Cl)cc2NC1=O (stereo not drawn) [BC19743],≥ 25
16,CC1Oc2c(cc(Br)cc2S(=O)(=O)Nc2ccc(F)cc2Cl)NC1=O (stereo not drawn) [BC19289],≥ 25
17,CCC1Oc2c(cc(Cl)cc2S(=O)(=O)Nc2ccccc2)NC1=O (stereo not drawn) [BC19738],< 1
18,CC(C)c1ccc(NS(=O)(=O)c2cc3c(cc2Br)NC(=O)CCO3)cc1 [BC19691],1 to 25
19,CCS(=O)(=O)c1cc2c(c(S(=O)(=O)Nc3cccc(F)c3)c1)OCC(=O)N2 [BC19440],≥ 25
20,CC1Oc2cc(S(=O)(=O)N3CCCC3)c(Cl)cc2NC1=O (stereo not drawn) [BC19208],≥ 25
21,CCC1Oc2c(cc(Br)cc2S(=O)(=O)NC2CCC(O)CC2)NC1=O (stereo not drawn) [BC19378],1 to 25
22,CC(C)CC1Oc2c(cc(Br)cc2S(=O)(=O)Nc2ccc(C(C)C)cc2)NC1=O (stereo not drawn) [BC19765],≥ 25

row,Compound,IC50 [µM]
1,COc1ccc(NS(=O)(=O)c2cc3c(cc2Cl)NC(=O)C(C)O3)cc1Cl (stereo not drawn) [BC19280],1 to 25
2,CC1Oc2cc(S(=O)(=O)NCc3ccc(OC(F)(F)F)cc3)c(Br)cc2NC1=O (stereo not drawn) [BC19357],1 to 25
3,CCC1Oc2c(cc(Cl)cc2S(=O)(=O)Nc2ccc(C)c(Cl)c2)NC1=O (stereo not drawn) [BC19746],1 to 25
4,CC1Oc2c(cc(Cl)cc2S(=O)(=O)Nc2ccc(F)c(F)c2)NC1=O (stereo not drawn) [BC19699],1 to 25
5,CC(=O)N1c2cc(S(=O)(=O)N3CCCC3)ccc2NC(=O)C1C (stereo not drawn) [BC19182],< 1
6,CC(C)CC1Oc2c(cc(Br)cc2S(=O)(=O)Nc2cccc(F)c2)NC1=O (stereo not drawn) [BC19773],1 to 25
7,CC(C)CC1Oc2cc(S(=O)(=O)Nc3ccc(F)cc3F)c(Br)cc2NC1=O (stereo not drawn) [BC19770],≥ 25
8,CCc1cccc(NS(=O)(=O)c2cc(Cl)cc3c2OC(C)C(=O)N3)c1 (stereo not drawn) [BC19712],≥ 25
9,CC1Oc2c(cc(Cl)cc2S(=O)(=O)Nc2cccc(F)c2)NC1=O (stereo not drawn) [BC19714],≥ 25
10,O=C1NCCOc2c1cc(Br)cc2S(=O)(=O)Nc1ccc(F)cc1 [BC19549],≥ 25
11,CCC1Oc2c(cc(Br)cc2S(=O)(=O)Nc2ccc(C)cc2)NC1=O (stereo not drawn) [BC19234],≥ 25
12,CCC1Oc2cc(S(=O)(=O)Nc3ccc(C)c(F)c3)c(Br)cc2N(C)C1=O (stereo not drawn) [BC19924],1 to 25
13,CC1Oc2c(cc(Br)cc2S(=O)(=O)N2CCOCC2)NC1=O (stereo not drawn) [BC19226],≥ 25
14,O=C1CCOc2cc(S(=O)(=O)Nc3ccc(F)cc3)c(Br)cc2N1 [BC19660],≥ 25
15,CC(C)CC1Oc2cc(S(=O)(=O)Nc3ccc(F)cc3)c(Br)cc2NC1=O (stereo not drawn) [BC19782],≥ 25
16,CCC1Oc2c(cc(Cl)cc2S(=O)(=O)Nc2ccc(F)c(F)c2)NC1=O (stereo not drawn) [BC19736],≥ 25
17,CC1Oc2cc(S(=O)(=O)Nc3ccc(F)cc3Cl)c(Br)cc2N(C)C1=O (stereo not drawn) [BC19907],≥ 25
18,COCCNC(=O)N1c2cc(S(=O)(=O)N3CCCC3)ccc2NC(=O)C1C (stereo not drawn) [BC19299],1 to 25
19,O=C1COc2cc(S(=O)(=O)NCCc3ccc(OC(F)(F)F)cc3)c(Br)cc2N1 [BC19387],≥ 25
20,CC1Oc2c(cc(Br)cc2S(=O)(=O)Nc2ccccc2)N(C)C1=O (stereo not drawn) [BC19789],≥ 25
21,O=C1CCOc2c(cc(Br)cc2S(=O)(=O)Nc2ccc(OC(F)(F)F)cc2)N1 [BC19648],≥ 25
22,CC1Oc2cc(S(=O)(=O)Nc3ccccc3)c(Br)cc2N(C)C1=O (stereo not drawn) [BC19790],1 to 25
